Assay results published in US11666642B2, “PDE5 compositions and methods for immunotherapy” (Obsidian Therapeutics, Inc., priority 2017, dated 2023).
pEC50: −log10 of the molar value.

Assays:
HEK 293 cells = assay: CAR surface expression by Protein L staining, dose and time dependence; type: cell-based; conditions: OT-CD19-053 in HEK 293 cells, 24 hours of ligand
Procedure: The dose dependent regulation of OT-CD19-052 and OT-CD19-053 was measured in HEK 293 cells transfected with 2 ug DNA and stably selected using 2 ug/ml puromycin.
Cells were also treated with ligand for varying durations of time with ligand concentrations shown in Table 45C and Protein L expression was measured using FACS.

NIH 3T3 cells = assay: Western blot analysis using a GFP antibody, hPDE5 C terminal mutants; conditions: hPDE5 mutant construct, 24 hours and 48 hours, vs untreated cells
From the text: All comparisons were made against cells that were not treated with either ligand.

HEK293T cells = assay: Effect of linker on DD regulation of IL15-IL15Ra, FACS using the HA antibody; type: cell-based; conditions: for Stabilization ratio: 1 μM Vardenafil vs DMSO control; for % HA positive cells, Vardenafil: 1 μM Vardenafil, 24 hours; for % HA positive cells, Control: DMSO control
Procedure: The effect of the type of linker used and the length of the linker on the regulation of the expression of the payload was tested. IL15-IL15Ra fusion constructs were linked to the hPDE5 (R732L) DD using GSGSGS (SEQ ID NO. 8330) as the linker (as in OT-IL15-111), or […] (SEQ ID NO. 8331) as the linker (as in OT-IL15-112) or using […] (SEQ ID NO. 8332) as the linker (as in OT-IL15-113). The IL15 portion of the construct was tagged with a Flag tag while the IL15Ra portion was tagged with a HA tag. These tags allow both the components of the construct to be tracked individually in experiments. […] The properties of the DDs regulated IL15-IL15Ra payloads were analyzed in the presence and absence of ligands via FACS using the HA antibody as previously described.

Row | Compound | Stabilization ratio (HEK293T cells) | % HA positive cells, Vardenafil (HEK293T cells) [%] | % HA positive cells, Control (HEK293T cells) [%] | also measured
1 | CCCc1nc(C)c2c(=O)[nH]c(-c3cc(S(=O)(=O)N4CCN(CC)CC4)ccc3OCC)nn12 [Vardenafil] |  |  |  | pEC50 (HEK 293 cells; Homo sapiens, HEK293): 7.60
2 | CCCc1nn(C)c2c(=O)[nH]c(-c3cc(S(=O)(=O)N4CCN(C)CC4)ccc3OCC)nc12 [Sildenafil] |  |  |  | pEC50 (HEK 293 cells): 5.82; GFP protein levels by western blot (NIH 3T3 cells; 0.1 μM ligand): modest stabilization of GFP protein levels; GFP protein levels by western blot (NIH 3T3 cells; 1 μM ligand): stabilization of GFP increased
3 | OT-IL15-111: IL15-IL15Ra fusion linked to hPDE5 (R732L) DD using GSGSGS linker | 1.69 | 63.2 | 37.5 | 
4 | OT-IL15-112: IL15-IL15Ra fusion linked to hPDE5 (R732L) DD using GSGSGSGS linker |  | 74.6 | 41.6 | 
5 | OT-IL15-113: IL15-IL15Ra fusion linked to hPDE5 (R732L) DD using GSGSGGGSGS linker | 1.65 | 69.1 | 42 | 
